Test in all cases: ≥ marks a high value that may be exact or a test limit, other limits are often not marked, values filed in µg/mL are converted to µM
For assay [1], the system named is Escherichia coli ATCC 25922.
Assay [2] deals with Staphylococcus aureus ATCC 33591.
Assay [3] relates to Staphylococcus aureus USA 300.
Assay [4] has as its system Klebsiella pneumoniae ATCC 13883.
Assay [5] deals with Pseudomonas aeruginosa PAO1.
In assay [6] the test system is Escherichia coli.
The subject of assay [7] is Bacillus subtilis.
The test system of assay [8] is Staphylococcus aureus.
The test system of assay [9] is Salmonella typhimurium.
The test system of assay [10] is Pseudomonas aeruginosa KCTC 1637.
For assay [11], the system named is Staphylococcus epidermidis KCTC 1917.
The subject of assay [12] is Escherichia coli KCTC 1682.
Assay [13] concerns Salmonella typhimurium KCTC 1926.
Assay [14] relates to Staphylococcus aureus KCTC 1621.
Assay [15] deals with Bacillus subtilis KCTC 3068.
The test system of assay [16] is Salmonella enterica subsp. enterica serovar Typhimurium ATCC 14028.
Assay [17] concerns Staphylococcus aureus ATCC 25923.
Assay [18] has as its system Acinetobacter baumannii ATCC 19606.
Assay [19] has as its system Acinetobacter baumannii.
Assay [20] concerns Klebsiella pneumoniae.

This note sets out measurements from DBAASP.

≈ marks a conversion by molar mass, not a printed value. Where “and” joins values, the source holds several entries; their conditions need not be identical. Equal values may be shown once. Where only a bound is given, the exact number is not on record here.

On to `CSCC[C@H](NC(=O)[C@H](CCCN=C(N)N)NC(=O)[C@H](CCCN=C(N)N)NC(=O)[C@H](CC(N)=O)NC(=O)[C@H](CCC(N)=O)NC(=O)[C@@H](N)Cc1ccccc1)C(=O)N[C@@H](CCCCN)C(=O)N[C@@H](Cc1c[nH]c2ccccc12)C(=O)N[C@@H](CCCCN)C(=O)N[C@@H](CCCCN)C(N)=O` [FQNRRMKWKK], for which the MIC in assay [1] was > 256 µM; in assay [2], ≥ 256 µM.

For `CC[C@H](C)[C@H](NC(=O)[C@H](CCCN=C(N)N)NC(=O)[C@H](CCC(N)=O)NC(=O)[C@@H](NC(=O)[C@@H](NC(=O)[C@H](CCC(N)=O)NC(=O)[C@H](CCC(N)=O)NC(=O)[C@H](Cc1ccccc1)NC(=O)CN)[C@@H](C)CC)C(C)C)C(=O)N[C@@H](CCCCN)C(=O)N[C@@H](CC(=O)O)C(=O)N[C@@H](Cc1ccccc1)C(=O)N[C@@H](CC(C)C)C(=O)N[C@@H](CCC(N)=O)C(=O)N[C@@H](CC(N)=O)C(=O)N[C@@H](CC(C)C)C(=O)N[C@H](C(N)=O)C(C)C` [GFQQIVQRIKDFLQNLV], the MIC in [3] is 12.5 µM (≈ 25.6 µg/mL).

In the case of `CC(C)C[C@H](NC(=O)[C@H](CC(C)C)NC(=O)[C@H](CCCCN)NC(=O)CNC(=O)[C@H](CC(C)C)NC(=O)[C@H](CC(C)C)NC(=O)[C@H](CC(C)C)NC(=O)[C@H](CC(C)C)NC(=O)[C@H](CO)NC(=O)[C@H](CO)NC(=O)[C@H](CC(C)C)NC(=O)[C@H](CC(C)C)NC(=O)CN)C(N)=O` [GLLSSLLLLGKLL], the MIC was 25 µM (≈ 33.5 µg/mL) in [4], > 25 µM in [1], 3.1 µM (≈ 4.15 µg/mL) in assay [3] and > 25 µM in assay [5].

For `CC[C@H](C)[C@H](NC(=O)[C@H](CCCN=C(N)N)NC(=O)[C@@H](NC(=O)[C@@H](NC(=O)[C@@H](NC(=O)CN)C(C)C)C(C)C)C(C)C)C(=O)NCC(=O)N[C@@H](CCCN=C(N)N)C(=O)N[C@H](C(=O)N[C@H](C(=O)N[C@H](C(=O)N[C@@H](CCCN=C(N)N)C(=O)NCC(=O)N[C@H](C(=O)N[C@@H](CCCN=C(N)N)C(=O)N[C@@H](CCCN=C(N)N)C(N)=O)C(C)C)C(C)C)[C@@H](C)CC)C(C)C` [GVVVRIGRVIVRGVRR], the MIC in [6] is 8 µM (≈ 14.3 µg/mL); in assay [7], 4 µM (≈ 7.16 µg/mL); in assay [8], 8 µM (≈ 14.3 µg/mL); in assay [9], 4 µM (≈ 7.16 µg/mL).

On to `CC[C@H](C)[C@H](N)C(=O)NCC(=O)N[C@@H](CCCCN)C(=O)N[C@@H](CC(C)C)C(=O)N[C@@H](Cc1ccccc1)C(=O)N[C@@H](CCCCN)C(=O)N[C@@H](CCCN=C(N)N)C(=O)N[C@H](C(=O)N[C@H](C(=O)N[C@@H](CCCCN)C(=O)N[C@@H](CCCN=C(N)N)C(=O)N[C@H](C(=O)N[C@@H](CC(C)C)C(=O)N[C@@H](CCCCN)C(=O)N[C@@H](Cc1ccccc1)C(=O)N[C@@H](CC(C)C)C(=O)N[C@@H](CCCN=C(N)N)C(=O)N[C@@H](CCCCN)C(=O)N[C@@H](CC(C)C)C(=O)O)[C@@H](C)CC)C(C)C)[C@@H](C)CC` [IGKLFKRIVKRILKFLRKL], for which the MIC in assay [10] stood at 8 µM (≈ 19 µg/mL); in assay [11] it was 4 µM (≈ 9.48 µg/mL); in [12] it was 8 µM (≈ 19 µg/mL); in [13], 4 µM (≈ 9.48 µg/mL); in assay [14], 4 µM (≈ 9.48 µg/mL); in [15] it was 2 µM (≈ 4.74 µg/mL).

As to `CC(C)C[C@H](NC(=O)[C@H](CC(C)C)NC(=O)[C@H](CCCCN)NC(=O)[C@H](CC(C)C)NC(=O)CNC(=O)[C@H](CC(C)C)NC(=O)[C@H](CO)NC(=O)[C@H](CC(C)C)NC(=O)[C@H](CC(C)C)NC(=O)[C@H](CO)NC(=O)CNC(=O)[C@H](CC(C)C)NC(=O)[C@@H](N)CC(C)C)C(N)=O` [LLGSLLSLGLKLL], the minimal inhibitory concentration (MIC) was 25 µM (≈ 33.5 µg/mL) in assay [4], > 25 µM in assay [1], 1.6 µM (≈ 2.14 µg/mL) in assay [3] and > 25 µM in assay [5].

In the case of `CC[C@H](C)[C@H](NC(=O)[C@H](CC(C)C)NC(=O)[C@@H](N)CC(C)C)C(=O)N[C@H](C(=O)N[C@@H](CC(C)C)C(=O)N[C@@H](CCCCN)C(=O)N[C@@H](CCCCN)C(=O)N[C@@H](CCCCN)C(=O)N[C@@H](Cc1c[nH]c2ccccc12)C(=O)N[C@@H](CCCCN)C(=O)N[C@@H](CCCCN)C(=O)N[C@@H](CCC(N)=O)C(=O)N[C@@H](C)C(=O)N[C@@H](CCCCN)C(=O)N[C@@H](C)C(=O)N[C@@H](CCCCN)C(=O)N[C@@H](CO)C(=O)N[C@@H](CCCCN)C(N)=O)[C@@H](C)CC` [LLIILKKKWKKQAKAKSK], the MIC in [10] was 8 µM (≈ 17.2 µg/mL); in [11], 8 µM (≈ 17.2 µg/mL); in assay [12], 8 µM (≈ 17.2 µg/mL); in assay [13], 4 µM (≈ 8.61 µg/mL); in assay [14] it was 4 µM (≈ 8.61 µg/mL); in [15], 4 µM (≈ 8.61 µg/mL).

With `CC[C@H](C)[C@H](NC(=O)[C@H](CC(C)C)NC(=O)[C@@H](N)CC(C)C)C(=O)N[C@H](C(=O)N[C@@H](CC(C)C)C(=O)N[C@@H](CCCN=C(N)N)C(=O)N[C@@H](CCCN=C(N)N)C(=O)N[C@@H](CCCN=C(N)N)C(=O)N[C@@H](Cc1c[nH]c2ccccc12)C(=O)N[C@@H](CCCN=C(N)N)C(=O)N[C@@H](CCCCN)C(=O)N[C@@H](CCC(N)=O)C(=O)N[C@@H](C)C(=O)N[C@@H](CCCN=C(N)N)C(=O)N[C@@H](C)C(=O)N[C@@H](CCCN=C(N)N)C(=O)N[C@@H](CO)C(=O)N[C@@H](CCCCN)C(N)=O)[C@@H](C)CC` [LLIILRRRWRKQARARSK], the MIC in assay [10] is 8 µM (≈ 18.6 µg/mL); in assay [11], 8 µM (≈ 18.6 µg/mL); in [12] it was 8 µM (≈ 18.6 µg/mL); in assay [13], 4 µM (≈ 9.28 µg/mL); in [14], 4 µM (≈ 9.28 µg/mL); in assay [15], 4 µM (≈ 9.28 µg/mL).

As to `CC[C@H](C)[C@H](NC(=O)[C@H](CC(C)C)NC(=O)[C@@H](N)CC(C)C)C(=O)N[C@H](C(=O)N[C@@H](CC(C)C)C(=O)N[C@@H](CCCN=C(N)N)C(=O)N[C@@H](CCCN=C(N)N)C(=O)N[C@@H](CCCN=C(N)N)C(=O)N[C@@H](Cc1c[nH]c2ccccc12)C(=O)N[C@@H](CCCN=C(N)N)C(=O)N[C@@H](CCCN=C(N)N)C(=O)N[C@@H](CCC(N)=O)C(=O)N[C@@H](C)C(=O)N[C@@H](CCCN=C(N)N)C(=O)N[C@@H](C)C(=O)N[C@@H](CCCN=C(N)N)C(=O)N[C@@H](CO)C(=O)N[C@@H](CCCN=C(N)N)C(N)=O)[C@@H](C)CC` [LLIILRRRWRRQARARSR], the MIC in [10] is 8 µM (≈ 19 µg/mL); in assay [11], 8 µM (≈ 19 µg/mL); in assay [12], 8 µM (≈ 19 µg/mL); in [13] it was 4 µM (≈ 9.5 µg/mL); in [14] it was 4 µM (≈ 9.5 µg/mL); in assay [15], 4 µM (≈ 9.5 µg/mL).

Consider `CC(C)C[C@H](NC(=O)[C@H](CCCN=C(N)N)NC(=O)[C@H](CCCN=C(N)N)NC(=O)[C@H](C)NC(=O)[C@H](Cc1c[nH]c2ccccc12)NC(=O)CNC(=O)[C@H](CCCN=C(N)N)NC(=O)[C@@H](N)CCCN=C(N)N)C(=O)N[C@@H](C)C(=O)N[C@@H](Cc1ccccc1)C(=O)N[C@@H](C)C(=O)N[C@@H](Cc1ccccc1)C(=O)N[C@@H](C)C(=O)N[C@@H](Cc1ccccc1)C(=O)NCC(=O)N[C@@H](CCCN=C(N)N)C(=O)N[C@@H](CCCN=C(N)N)C(N)=O` [RRGWARRLAFAFAFGRR], for which the MIC was 2.6 µM (≈ 5.44 µg/mL) in [4]; 1.5 µM (≈ 3.14 µg/mL) in assay [16]; 26.3 µM and 30 µM in assay [17]; 2.5 µM and 5.2 µM in [5]; 6.2 µM (≈ 13 µg/mL) in assay [18].

As for `CC(C)C[C@H](NC(=O)[C@H](CCCN=C(N)N)NC(=O)[C@H](CCCN=C(N)N)NC(=O)[C@H](C)NC(=O)[C@H](Cc1c[nH]c2ccccc12)NC(=O)CNC(=O)[C@H](CCCN=C(N)N)NC(=O)[C@@H](N)CCCN=C(N)N)C(=O)N[C@H](C(=O)N[C@@H](Cc1ccccc1)C(=O)N[C@@H](C)C(=O)N[C@@H](Cc1ccccc1)C(=O)NCC(=O)N[C@@H](CCCN=C(N)N)C(=O)N[C@@H](CCCN=C(N)N)C(N)=O)C(C)C` [RRGWARRLVFAFGRR], the MIC is 3.2 µM (≈ 6.09 µg/mL) in assay [19]; 30 µM (≈ 57.1 µg/mL) in assay [4]; 15.1 µM and 26.6 µM in [1]; 1.3 µM (≈ 2.47 µg/mL) in [20]; > 30 µM in [17].
